Assay results from patent US9695155B2, “Herbicidal substituted pyrimidinyloxy benzene compounds” (E. I. DU PONT DE NEMOURS AND COMPANY, priority 2013, dated 2017).

Assays:
[1] = test system: waterhemp; assay: Test C preemergence; type: in vivo, Amaranthus rudis; details: for Waterhemp plant response rating: preemergence
How it was run: (§1)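 Seeds are planted in blended loam soil and sand and treated preemergence, while seedlings in a peat moss/vermiculite medium receive postemergence sprays at 2 to 18 cm height. All plants stay in the greenhouse for 13 to 15 days before visual comparison with controls on a 0–100 scale.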

[2] = test system: pigweed; assay: Test C preemergence; type: in vivo, Amaranthus retroflexus; details: for Pigweed plant response rating: preemergence
How it was run: as §1

[3] = test system: ragweed; assay: Test C preemergence; type: in vivo, Ambrosia elatior; details: for Ragweed plant response rating: preemergence
How it was run: as §1

[4] = test system: galium; assay: Test C postemergence; type: in vivo, Galium aparine; details: for Plant response rating, Galium: scale 0 to 100 (0 no effect, 100 complete control)
How it was run: as §1

[5] = test system: wheat; assay: Test A preemergence; type: in vivo, Triticum aestivum; details: 1000 g ai/ha, 0 to 100 scale, 0 no effect, 100 complete control, approx. 10 days
How it was run: (§2)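 Pre- and postemergence greenhouse screen. Soil: loam + sand. Spray carrier: solvent mixture, non-phytotoxic, with surfactant. Post timing at 1–2 leaves, height 2–10 cm. Readout: visual injury on a 0–100 scale roughly 10 days after application, untreated plants as reference.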

[6] = test system: corn; assay: Test A postemergence; type: in vivo, Zea mays; details: 1000 g ai/ha, 0 to 100 scale, 0 no effect, 100 complete control
How it was run: as §2

[7] = test system: lambsquarters; assay: Test C postemergence; type: in vivo, Chenopodium album; details: for Plant response rating, Lambsquarters: scale 0 to 100 (0 no effect, 100 complete control)
How it was run: as §1

[8] = test system: yellow nutsedge; assay: Test C preemergence; type: in vivo, Cyperus esculentus; details: for Nutsedge, Yellow plant response rating: preemergence
How it was run: as §1

[9] = test system: giant foxtail; assay: Test A postemergence; type: in vivo, Setaria faberii; details: 1000 g ai/ha, 0 to 100 scale, 0 no effect, 100 complete control
How it was run: as §2

[10] = test system: pigweed; assay: Test A preemergence; type: in vivo, Amaranthus retroflexus; details: 1000 g ai/ha, 0 to 100 scale, 0 no effect, 100 complete control, approx. 10 days
How it was run: as §2

[11] = test system: kochia; assay: Test C postemergence; type: in vivo, Kochia scoparia; details: for Plant response rating, Kochia: scale 0 to 100 (0 no effect, 100 complete control)
How it was run: as §1

[12] = test system: large (Lg) crabgrass; assay: Test A postemergence; type: in vivo, Digitaria sanguinalis; details: 1000 g ai/ha, 0 to 100 scale, 0 no effect, 100 complete control
How it was run: as §2

[13] = test system: lambsquarters; assay: Test C preemergence; type: in vivo, Chenopodium album; details: for Lambsquarters plant response rating: preemergence
How it was run: as §1

[14] = test system: velvetleaf; assay: Test A postemergence; type: in vivo, Abutilon theophrasti; details: 1000 g ai/ha, 0 to 100 scale, 0 no effect, 100 complete control
How it was run: as §2

[15] = test system: morningglory; assay: Test C postemergence; type: in vivo, Ipomoea coccinea; details: for Plant response rating, Morningglory: scale 0 to 100 (0 no effect, 100 complete control)
How it was run: as §1

[16] = 16 g ai/ha, scale 0 to 100 (0 no effect, 100 complete control)
[17] = 62 g ai/ha, scale 0 (no effect) to 100 (complete control)
[18] = 125 g ai/ha, scale 0 (no effect) to 100 (complete control)
[19] = Preemergence, 31 g ai/ha, scale 0 to 100, 0 no effect, 100 complete control
[20] = 16 g ai/ha, postemergence, 0 is no effect, 100 is complete control
[21] = 125 g ai/ha, postemergence, visual rating

N#Cc1cn(-c2c(Br)cccc2Oc2ncc(Cl)cn2)nn1 [Compound 116]
Waterhemp plant response rating [1, 16]: 100
Waterhemp plant response rating [1, 17]: 100
Waterhemp plant response rating [1, 18]: 100
Plant response rating, Waterhemp [1, 19]: 100
Pigweed plant response rating [2, 16]: 75
Pigweed plant response rating [2, 17]: 100
Pigweed plant response rating [2, 18]: 100
Plant response rating, Pigweed [2, 19]: 100
Ragweed plant response rating [3, 16]: 0
Ragweed plant response rating [3, 17]: 45
Ragweed plant response rating [3, 18]: 45
Plant response rating, Ragweed [3, 19]: 5
Plant response rating (0 to 100), Galium [4, 20]: 55
Plant response rating, Galium [4, 21]: 80
Plant response rating, Galium ([4]; Postemergence, 62 g ai/ha): 80
Wheat plant response rating [5]: 40
Plant response rating, Corn [6]: 60
Plant response rating (0 to 100), Lambsquarters [7, 20]: 5
Plant response rating, Lambsquarters [7, 21]: 80
Plant response rating, Lambsquarters ([7]; Postemergence, 62 g ai/ha): 50
Nutsedge, Yellow plant response rating [8, 16]: 0
Nutsedge, Yellow plant response rating [8, 17]: 10
Nutsedge, Yellow plant response rating [8, 18]: 40
Plant response rating, Nutsedge, Yellow [8, 19]: 5
Plant response rating, Foxtail, Giant [9]: 90
Pigweed plant response rating [10]: 100
Plant response rating (0 to 100), Kochia [11, 20]: 70
Plant response rating, Kochia [11, 21]: 95
Plant response rating, Kochia ([11]; Postemergence, 62 g ai/ha): 90
Plant response rating, Crabgrass, Large [12]: 100
Lambsquarters plant response rating [13, 16]: 10
Lambsquarters plant response rating [13, 17]: 85
Lambsquarters plant response rating [13, 18]: 100
Plant response rating, Lambsquarters [13, 19]: 95
Plant response rating, Velvetleaf [14]: 100
Plant response rating (0 to 100), Morningglory [15, 20]: 50
Plant response rating, Morningglory [15, 21]: 80
Plant response rating, Morningglory ([15]; Postemergence, 62 g ai/ha): 60
